For the test, the system named is Severe Acute Respiratory Syndrome-Associated Coronavirus (SARS-CoV-1) Urbani strain. On the set-up: species or system BALB/C mice. As to conditions: in vivo.

Values joined by “and” are separate entries in the source; they are usually repeats but may differ in a detail not shown here. Identical values can stand only once.

With polyinosinic: polycytidylic acid, the “relative efficacy in reducing viral load in mouse lung (in words)” value was “lower viral titers at the 3-day mark”. Where the note is “mouse”, the “order of efficacy by percent reduction in viral load” value is reported as “H>G>F>A>D>B=C>I>J>E” and the “virtual linear slope of viral reduction beyond 5 days post exposure: day mark at which it converged” value amounted to 7 days. In addition, where the note is “mouse, ip, 10 mg/kg/day”, the Lung virus titer is 7.2 CC ID/50 (Log 10) and 7.0 CC ID/50 (Log 10) and 6.5 CC ID/50 (Log 10) and 6.0 CC ID/50 (Log 10) and 6.2 CC ID/50 (Log 10); the “percent reduction in viral load” value was determined as 11.8%.
